Results reported in patent US20040063662A1, “Selenophene anti-tumor agents” (priority 1996, published 2004).

Columns and labels:
SF-295 = experiment: NCI human tumor cell panel: SF-295 (CNS Cancer); assay type: cell-based; conditions: SF-295, read-out: Log10 GI50 (converted)
LOX IMVI = experiment: NCI human tumor cell panel: LOX IMVI (Melanoma); assay type: cell-based
HT29 = experiment: NCI human tumor cell panel: HT29 (Colon Cancer); assay type: cell-based
SW-620 = experiment: NCI human tumor cell panel: SW-620 (Colon Cancer); assay type: cell-based
UACC-257 = experiment: NCI human tumor cell panel: UACC-257 (Melanoma); assay type: cell-based
M14 = experiment: NCI human tumor cell panel: M14 (Melanoma); assay type: cell-based
HOP-62 = experiment: NCI human tumor cell panel: HOP-62 (Non-Small Cell Lung Cancer); assay type: cell-based
UACC-62 = experiment: NCI human tumor cell panel: UACC-62 (Melanoma); assay type: cell-based
OVCAR-3 = experiment: NCI human tumor cell panel: OVCAR-3 (Ovarian Cancer); assay type: cell-based
OVCAR-4 = experiment: NCI human tumor cell panel: OVCAR-4 (Ovarian Cancer); assay type: cell-based; conditions: OVCAR-4, read-out: Log10 GI50 (converted)
HCT-116 = experiment: NCI human tumor cell panel: HCT-116 (Colon Cancer); assay type: cell-based
UO-31 = experiment: NCI human tumor cell panel: UO-31 (Renal Cancer); assay type: cell-based
EKVX = experiment: NCI human tumor cell panel: EKVX (Non-Small Cell Lung Cancer); assay type: cell-based
HCC-2998 = experiment: NCI human tumor cell panel: HCC-2998 (Colon Cancer); assay type: cell-based
MCF7 = experiment: NCI human tumor cell panel: MCF7 (Breast Cancer); assay type: cell-based
NCI-H460 = experiment: NCI human tumor cell panel: NCI-H460 (Non-Small Cell Lung Cancer); assay type: cell-based
KM12 = experiment: NCI human tumor cell panel: KM12 (Colon Cancer); assay type: cell-based; conditions: KM12, read-out: Log10 TGI (converted)
MOLT-4 = experiment: NCI human tumor cell panel: MOLT-4 (Leukemia); assay type: cell-based
SNB-75 = experiment: NCI human tumor cell panel: SNB-75 (CNS Cancer); assay type: cell-based
SF-539 = experiment: NCI human tumor cell panel: SF-539 (CNS Cancer); assay type: cell-based
HCT-15 = experiment: NCI human tumor cell panel: HCT-15 (Colon Cancer); assay type: cell-based
SR = experiment: NCI human tumor cell panel: SR (Leukemia); assay type: cell-based
OVCAR-8 = experiment: NCI human tumor cell panel: OVCAR-8 (Ovarian Cancer); assay type: cell-based
U251 = experiment: NCI human tumor cell panel: U251 (CNS Cancer); assay type: cell-based
HOP-92 = experiment: NCI human tumor cell panel: HOP-92 (Non-Small Cell Lung Cancer)
NCI-H322M = experiment: cells; assay type: cell-based; conditions: Homo sapiens
MDA-N = experiment: NCI human tumor cell panel: MDA-N (Breast Cancer); assay type: cell-based
ACHN = experiment: NCI human tumor cell panel: ACHN (Renal Cancer); assay type: cell-based
RPMI-8226 = experiment: NCI human tumor cell panel: RPMI-8226 (Leukemia); assay type: cell-based
MDA-MB-435 = experiment: NCI human tumor cell panel: MDA-MB-435 (Breast Cancer); assay type: cell-based
MALME-3M = experiment: NCI human tumor cell panel: MALME-3M (Melanoma); assay type: cell-based; conditions: Malme-3M
DU-145 = experiment: NCI human tumor cell panel: DU-145 (Prostate Cancer); assay type: cell-based
[1] = read-out: Log10 GI50 (converted)
[2] = read-out: Log10 TGI (converted)

O=Cc1ccc(-c2ccc(-c3ccc(C=O)[se]3)s2)s1 [compound 688829]
GI50 (SF-295): > 100 µM
GI50 (LOX IMVI; [1]): 16.6 µM
IC (TGI) (LOX IMVI; [2]): > 100 µM
GI50 (HT29; HT-29, HT29, read-out: Log10 GI50 (converted)): 23.4 µM
IC (TGI) (HT29; HT-29, HT29, read-out: Log10 TGI (converted)): > 100 µM
GI50 (SW-620; SW-620, read-out: Log10 GI50 (converted)): 0.832 µM
IC (TGI) (SW-620; SW-620, read-out: Log10 TGI (converted)): > 100 µM
GI50 (UACC-257; UACC-257, read-out: Log10 GI50 (converted)): 0.195 µM
IC (TGI) (UACC-257; UACC-257, read-out: Log10 TGI (converted)): 0.513 µM
GI50 (M14; M14, read-out: Log10 GI50 (converted)): 20 µM
IC (TGI) (M14; M14, read-out: Log10 TGI (converted)): > 100 µM
GI50 (HOP-62; HOP-62, read-out: Log10 GI50 (converted)): 0.251 µM
IC (TGI) (HOP-62; HOP-62, read-out: Log10 TGI (converted)): 15.8 µM
GI50 (UACC-62; UACC-62, read-out: Log10 GI50 (converted)): 0.141 µM
IC (TGI) (UACC-62; UACC-62, read-out: Log10 TGI (converted)): > 100 µM
GI50 (OVCAR-3; OVCAR-3, read-out: Log10 GI50 (converted)): 0.129 µM
IC (TGI) (OVCAR-3; OVCAR-3, read-out: Log10 TGI (converted)): 0.631 µM
GI50 (OVCAR-4): 0.186 µM
GI50 (HCT-116; HCT-116, read-out: Log10 GI50 (converted)): 0.295 µM
IC (TGI) (HCT-116; HCT-116, read-out: Log10 TGI (converted)): > 100 µM
GI50 (UO-31; UO-31, read-out: Log10 GI50 (converted)): > 100 µM
IC (TGI) (UO-31; UO-31, read-out: Log10 TGI (converted)): > 100 µM
GI50 (EKVX; [1]): > 100 µM
IC (TGI) (EKVX; [2]): > 100 µM
GI50 (HCC-2998; HCC-2998, read-out: Log10 GI50 (converted)): 0.389 µM
IC (TGI) (HCC-2998; HCC-2998, read-out: Log10 TGI (converted)): > 100 µM
GI50 (MCF7; MCF7, read-out: Log10 GI50 (converted)): 0.191 µM
IC (TGI) (MCF7; MCF7, read-out: Log10 TGI (converted)): > 100 µM
GI50 (NCI-H460; NCI-H460, read-out: Log10 GI50 (converted)): 0.141 µM
IC (TGI) (NCI-H460; NCI-H460, read-out: Log10 TGI (converted)): > 100 µM
IC (TGI) (KM12): > 100 µM
GI50 (MOLT-4; MOLT-4, read-out: Log10 GI50 (converted)): 57.5 µM
IC (TGI) (MOLT-4; MOLT-4, read-out: Log10 TGI (converted)): > 100 µM
GI50 (SNB-75; SNB-75, read-out: Log10 GI50 (converted)): 75.9 µM
IC (TGI) (SNB-75; SNB-75, read-out: Log10 TGI (converted)): > 100 µM
GI50 (SF-539; SF-539, read-out: Log10 GI50 (converted)): 27.5 µM
IC (TGI) (SF-539; SF-539, read-out: Log10 TGI (converted)): > 100 µM
GI50 (HCT-15; HCT-15, read-out: Log10 GI50 (converted)): 22.9 µM
IC (TGI) (HCT-15; HCT-15, read-out: Log10 TGI (converted)): > 100 µM
GI50 (SR; [1]): 24.5 µM
IC (TGI) (SR; [2]): 72.4 µM
GI50 (OVCAR-8; OVCAR-8, read-out: Log10 GI50 (converted)): 15.1 µM
IC (TGI) (OVCAR-8; OVCAR-8, read-out: Log10 TGI (converted)): 93.3 µM
GI50 (U251; U-251, U251, read-out: Log10 GI50 (converted)): 0.245 µM
IC (TGI) (U251; U-251, U251, read-out: Log10 TGI (converted)): 25.7 µM
GI50 (HOP-92; HOP-92, read-out: Log10 GI50 (converted)): 97.7 µM
IC (TGI) (HOP-92; HOP-92, read-out: Log10 TGI): > 100 µM
GI50 (NCI-H322M; [1]): 27.5 µM
IC (TGI) (NCI-H322M; [2]): 89.1 µM
GI50 (MDA-N; [1]): 20.9 µM
IC (TGI) (MDA-N; [2]): > 100 µM
GI50 (ACHN; [1]): > 100 µM
IC (TGI) (ACHN; [2]): > 100 µM
GI50 (RPMI-8226; RPMI-8226, read-out: Log10 GI50 (converted)): 38.9 µM
IC (TGI) (RPMI-8226; RPMI-8226, read-out: Log10 TGI): > 100 µM
GI50 (MDA-MB-435; MDA-MB-435, read-out: Log10 GI50 (converted)): 33.1 µM
IC (TGI) (MDA-MB-435; MDA-MB-435, read-out: Log10 TGI (converted)): > 100 µM
GI50 (MALME-3M; [1]): 28.8 µM
IC (TGI) (MALME-3M; [2]): > 100 µM
GI50 (DU-145; DU-145, read-out: Log10 GI50 (converted)): > 100 µM
IC (TGI) (DU-145; DU-145, read-out: Log10 TGI (converted)): > 100 µM
